From patent US10316017B2, “COT modulators and methods of use thereof” (Gilead Sciences, Inc., priority 2015, dated 2019)

Experiments:
[1] = test system: TNFα production in LPS-stimulated human monocytes; assay: Cot Monocyte TNFα Cell Based Assay; settings: Homo sapiens, Monocyte, LPS-stimulated human monocytes, TNFα TR-FRET; read-out: EC50 TNF
Summary of the method: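 Percent-of-control values derive from TR-FRET ratios of TNFα in spun-down media, referenced to unstimulated and LPS-stimulated wells. Exposure: 1 h compound preincubation, then 50 pg/ml LPS for 4 h, both at 37 °C, with 0.5% final DMSO.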

[2] = biological target: T1, human Cot catalytic domain (30-397 amino acids) (Homo sapiens, UniProt P41279); assay: High Throughput Cot Biochemical Assay (KinEASE TR-FRET); settings: Cot KinEASE TR-FRET, 400 μM ATP; read-out: IC50 HTRF
T1 construct: Purified recombinant human Cot catalytic domain (30-397 amino acids) was purchased from Cama Biosciences; purchased Cama Biosciences (so in the source)
T1 sequence (P41279 30-397): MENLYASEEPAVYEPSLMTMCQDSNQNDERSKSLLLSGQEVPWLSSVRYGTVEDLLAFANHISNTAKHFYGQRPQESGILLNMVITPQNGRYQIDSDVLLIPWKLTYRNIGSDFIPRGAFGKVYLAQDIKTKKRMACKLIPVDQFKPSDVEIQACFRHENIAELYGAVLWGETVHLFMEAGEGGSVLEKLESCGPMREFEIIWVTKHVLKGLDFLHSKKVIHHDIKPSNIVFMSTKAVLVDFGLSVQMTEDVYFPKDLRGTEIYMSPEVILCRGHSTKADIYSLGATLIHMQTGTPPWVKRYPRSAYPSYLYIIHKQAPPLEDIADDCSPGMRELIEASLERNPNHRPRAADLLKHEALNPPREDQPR
Summary of the method: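 Phosphorylation of 1 μM XL665-STK3 peptide by 5 nM Cot catalytic domain was measured by time-resolved FRET using a europium […] antibody. ATP was 400 μM; buffer was 10 mM MOPS pH 7.0 with Mg2+ and DTT.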

SMILES | EC50 [1] [nM] | IC50 [2] [nM]
Cc1c(-c2ccncc2)cccc1[C@H](Nc1cc(Cl)c2ncc(C#N)c(NCC(C)(C)C)c2c1)c1cn(C2(C(F)F)CC2)nn1 [Example 1085, (S)-8-chloro-6-(((1-(1-(difluoromethyl)cyclopropyl)-1H-1,2,3-triazol-4-yl)(2-methyl-3-(pyridin-4-yl)phenyl)methyl)amino)-4-(neopentylamino)quinoline-3-carbonitrile] | 205 | 5
Cc1c(-c2cnn(C)c2)cccc1[C@H](Nc1cc(Cl)c2ncc(C#N)c(NCC(C)(C)C)c2c1)c1cn(C2(C(F)F)CC2)nn1 [Example 1086, (S)-8-chloro-6-(((1-(1-(difluoromethyl)cyclopropyl)-1H-1,2,3-triazol-4-yl)(2-methyl-3-(1-methyl-1H-pyrazol-4-yl)phenyl)methyl)amino)-4-(neopentylamino)quinoline-3-carbonitrile] | 76 | 4
CCOC(=O)c1cccc([C@H](Nc2cc(Cl)c3ncc(C#N)c(NCC(C)(C)C)c3c2)c2cn(C3(C(F)(F)F)CC3)nn2)c1F [Example 1087, ethyl (S)-3-(((8-chloro-3-cyano-4-(neopentylamino)quinolin-6-yl)amino)(1-(1-(trifluoromethyl)cyclopropyl)-1H-1,2,3-triazol-4-yl)methyl)-2-fluorobenzoate] | 375 | 22
COC(=O)c1cc([C@H](Nc2cc(Cl)c3ncc(C#N)c(NCC(C)(C)C)c3c2)c2cn(C3(C(F)(F)F)CC3)nn2)ccc1F [Example 1088, methyl (S)-5-(((8-chloro-3-cyano-4-(neopentylamino)quinolin-6-yl)amino)(1-(1-(trifluoromethyl)cyclopropyl)-1H-1,2,3-triazol-4-yl)methyl)-2-fluorobenzoate] | 934 | 22
Cc1c(C#N)cccc1[C@H](Nc1cc(Cl)c2ncc(C#N)c(NCC(C)(C)C(F)(F)F)c2c1)c1cn(C2(C(F)F)CC2)nn1 [Example 1089, (S)-8-chloro-6-(((3-cyano-2-methylphenyl)(1-(1-(difluoromethyl)cyclopropyl)-1H-1,2,3-triazol-4-yl)methyl)amino)-4-((3,3,3-trifluoro-2,2-dimethylpropyl)amino)quinoline-3-carbonitrile] | 23 | 7
Cc1c(F)cccc1[C@H](Nc1cc(Cl)c2ncc(C#N)c(NCC(C)(C)C)c2c1)c1cn(C2(C(F)(F)F)CC2)nn1 [Example 1090, (S)-8-chloro-6-(((3-fluoro-2-methylphenyl)(1-(1-(trifluoromethyl)cyclopropyl)-1H-1,2,3-triazol-4-yl)methyl)amino)-4-(neopentylamino)quinoline-3-carbonitrile] | 614 | 75
CC(C)(C)CNc1c(C#N)cnc2c(Cl)cc(N[C@@H](c3cccc(C4(C#N)CC4)c3)c3cn(C4(C(F)(F)F)CC4)nn3)cc12 [Example 1091, (S)-8-chloro-6-(((3-(1-cyanocyclopropyl)phenyl)(1-(1-(trifluoromethyl)cyclopropyl)-1H-1,2,3-triazol-4-yl)methyl)amino)-4-(neopentylamino)quinoline-3-carbonitrile] | ≥ 1000 | 28
CC(C)(C)CNc1c(C#N)cnc2c(Cl)cc(N[C@@H](c3ccc(F)cc3)c3cn(C45CC(C4)C5)nn3)cc12 [Example 1092, (S)-6-(((1-(bicyclo[1.1.1]pentan-1-yl)-1H-1,2,3-triazol-4-yl)(4-fluorophenyl)methyl)amino)-8-chloro-4-(neopentylamino)quinoline-3-carbonitrile] | 395 | 20
CC(C)(C)CNc1c(C#N)cnc2c(Cl)cc(N[C@@H](c3ccccc3)c3cn(C45CC(C4)C5)nn3)cc12 [Example 1093, (S)-6-(((1-(bicyclo[1.1.1]pentan-1-yl)-1H-1,2,3-triazol-4-yl)(phenyl)methyl)amino)-8-chloro-4-(neopentylamino)quinoline-3-carbonitrile] | 424 | 17
CC(C)(C)CNc1c(C#N)cnc2c(Cl)cc(N[C@@H](c3cccc(C4(C#N)CC4)c3)c3cn(C45CC(C4)C5)nn3)cc12 [Example 1094, (S)-6-(((1-(bicyclo[1.1.1]pentan-1-yl)-1H-1,2,3-triazol-4-yl)(3-(1-cyanocyclopropyl)phenyl)methyl)amino)-8-chloro-4-(neopentylamino)quinoline-3-carbonitrile] | 407 | 10
Cc1c(-c2ccncc2)cccc1[C@H](Nc1cc(Cl)c2ncc(C#N)c(NCC(C)(C)C)c2c1)c1cn(C2(C(F)(F)F)CC2)nn1 [Example 1095, (S)-8-chloro-6-(((2-methyl-3 (pyridin-4-yl)phenyl)(1-(1-(trifluoromethyl)cyclopropyl)-1H-1,2,3-triazol-4-yl)methyl)amino)-4-(neopentylamino)quinoline-3-carbonitrile] | 226 | 12
Cc1c(-c2cccnc2)cccc1[C@H](Nc1cc(Cl)c2ncc(C#N)c(NCC(C)(C)C)c2c1)c1cn(C2(C(F)(F)F)CC2)nn1 [Example 1096, (S)-8-chloro-6-(((2-methyl-3-(pyridin-3-yl)phenyl)(1-(1-(trifluoromethyl)cyclopropyl)-1H-1,2,3-triazol-4-yl)methyl)amino)-4-(neopentylamino)quinoline-3-carbonitrile] | 262 | 10
Cc1c(-c2cnn(C)c2)cccc1[C@H](Nc1cc(Cl)c2ncc(C#N)c(NCC(C)(C)C)c2c1)c1cn(C2(C(F)(F)F)CC2)nn1 [Example 1097, (S)-8-chloro-6-(((2-methyl-3-(1-methyl-1H-pyrazol-4-yl)phenyl) (1-(1-(trifluoromethyl)cyclopropyl)-1H-1,2,3-triazol-4-yl)methyl)amino)-4-(neopentylamino)quinoline-3-carbonitrile] | 166 | 9
Cc1cc(C#N)ccc1[C@H](Nc1cc(Cl)c2ncc(C#N)c(NCC(C)(C)C)c2c1)c1cn(C2(C(F)F)CC2)nn1 [Example 1098, (S)-8-chloro-6-(((4-cyano-2-methylphenyl)(1-(1-(difluoromethyl)cyclopropyl)-1H-1,2,3-triazol-4-yl)methyl)amino)-4-(neopentylamino)quinoline-3-carbonitrile] | 73 | 23
Cc1c(C#N)cccc1[C@H](Nc1cc(Cl)c2ncc(C#N)c(NCC(C)(C)C)c2c1)c1cn(C2(CF)CC2)nn1 [Example 1100, (S)-8-chloro-6-(((3-cyano-2-methylphenyl)(1-(1-(fluoromethyl)cyclopropyl)-1H-1,2,3-triazol-4-yl)methyl)amino)-4-(neopentylamino)quinoline-3-carbonitrile] | 45 | 4
Cc1c(C#N)cccc1[C@H](Nc1cc(Cl)c2ncc(C#N)c(NCC(C)(C)C)c2c1)c1cn(C2(C)CC2)nn1 [Example 1101, (S)-8-chloro-6-(((3-cyano-2-methylphenyl)(1-(1-methylcyclopropyl)-1H-1,2,3-triazol-4-yl)methyl)amino)-4-(neopentylamino)quinoline-3-carbonitrile] | 27 | 3
Cc1c(C#N)cccc1[C@H](Nc1cc(Cl)c2ncc(C#N)c(NCC(C)(C)C)c2c1)c1cn(C(CF)CF)nn1 [Example 1102, (S)-8-chloro-6-(((3-cyano-2-methylphenyl)(1-(1,3-difluoropropan-2-yl)-1H-1,2,3-triazol-4-yl)methyl)amino)-4-(neopentylamino)quinoline-3-carbonitrile] | 63 | 8
Cc1c(C#N)cccc1[C@H](Nc1cc(Cl)c2ncc(C#N)c(NCC(C)(C)C)c2c1)c1cn([C@@H](C)CF)nn1 [Example 1103, 8-chloro-6-(((S)-(3-cyano-2-methylphenyl)(1-((S)-1-fluoropropan-2-yl)-1H-1,2,3-triazol-4-yl)methyl)amino)-4-(neopentylamino)quinoline-3-carbonitrile] | 26 | 5
Cc1c(C#N)cccc1[C@H](Nc1cc(Cl)c2ncc(C#N)c(NCC(C)(C)C(F)(F)F)c2c1)c1cn(C2(C)CC2)nn1 [Example 1104, (S)-8-chloro-6-(((3-cyano-2-methylphenyl)(1-(1-methylcyclopropyl)-1H-1,2,3-triazol-4-yl)methyl)amino)-4-((3,3,3-trifluoro-2,2-dimethylpropyl)amino)quinoline-3-carbonitrile] | 53 | 3
Cc1c(C#N)cccc1[C@H](Nc1cc(Cl)c2ncc(C#N)c(NCC(C)(C)C(F)(F)F)c2c1)c1cn(C2(C3CC3)CC2)nn1 [Example 1105, (S)-6-(((1-([1,1'-bi(cyclopropan)]-1-yl)-1H-1,2,3-triazol-4-yl)(3-cyano-2-methylphenyl)methyl)amino)-8-chloro-4-((3,3,3-trifluoro-2,2-dimethylpropyl)amino)quinoline-3-carbonitrile] | 90 | 5
Cc1c(C#N)cccc1[C@H](Nc1cc(Cl)c2ncc(C#N)c(NCC(C)(C)C(F)(F)F)c2c1)c1cn([C@@H](C)CF)nn1 [Example 1106, 8-chloro-6-(((S)-(3-cyano-2-methylphenyl)(1-((S)-1-fluoropropan-2-yl)-1H-1,2,3-triazol-4-yl)methyl)amino)-4-((3,3,3-trifluoro-2,2-dimethylpropyl)amino) quinoline-3-carbonitrile] | 76 | 5
